Data on 26 compounds can be found in PubChem BioAssay AID330 (DTP/NCI, 2004).

This assay deals with P388 leukemia ip, CD2F1 mice, survival T/C. Description: NCI In Vivo Anticancer Drug Screen. Data for tumor model P388 Leukemia (intraperitoneal) in CD2F1 (CDF1) mice. The conditions noted are these: endpoint: median survival time, higher = longer survival. In outline: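 Mice carrying the transplanted tumor received test compound or vehicle. Survival was recorded in each group, and the value is the treated-group measurement divided by that of the vehicle-treated control group.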

[1] abbreviates: dose: 60.0 mg/kg/injection, schedule: Q01DX005 (ip), vehicle: Klucel (hydroxypropylcellulose) (HPC).
[2] abbreviates: dose: 120.0 mg/kg/injection, schedule: Q01DX005 (ip), vehicle: Klucel (hydroxypropylcellulose) (HPC).
Where [3] appears, read: dose: 240.0 mg/kg/injection, schedule: Q01DX005 (ip), vehicle: Klucel (hydroxypropylcellulose) (HPC).
Where [4] appears, read: dose: 50.0 mg/kg/injection, schedule: Q01DX009 (ip), vehicle: saline with Tween-80.
[5] abbreviates: dose: 100.0 mg/kg/injection, schedule: Q01DX009 (ip), vehicle: saline with Tween-80.
Setting [6] is: dose: 200.0 mg/kg/injection, schedule: Q01DX009 (ip), vehicle: saline with Tween-80.
The mark [7] stands for this setting: dose: 60.0 mg/kg/injection, schedule: Q01DX005 (ip), vehicle: saline with Tween-80.
The mark [8] stands for this setting: dose: 120.0 mg/kg/injection, schedule: Q01DX005 (ip), vehicle: saline with Tween-80.
Where [9] appears, read: dose: 240.0 mg/kg/injection, schedule: Q01DX005 (ip), vehicle: saline with Tween-80.
The mark [10] stands for this setting: dose: 50.0 mg/kg/injection, schedule: Q01DX005 (ip), vehicle: saline.
[11] abbreviates: dose: 100.0 mg/kg/injection, schedule: Q01DX005 (ip), vehicle: saline.
Setting [12] is: dose: 200.0 mg/kg/injection, schedule: Q01DX005 (ip), vehicle: saline.
Where [13] appears, read: dose: 12.5 mg/kg/injection, schedule: Q01DX009 (ip), vehicle: saline with Tween-80.
The mark [14] stands for this setting: dose: 25.0 mg/kg/injection, schedule: Q01DX009 (ip), vehicle: saline with Tween-80.
The mark [15] stands for this setting: dose: 50.0 mg/kg/injection, schedule: Q01DX009 (ip), vehicle: saline.
[16] abbreviates: dose: 50.0 mg/kg/injection, schedule: Q01DX005 (ip), vehicle: saline with Tween-80.
The mark [17] stands for this setting: dose: 100.0 mg/kg/injection, schedule: Q01DX005 (ip), vehicle: saline with Tween-80.
Where [18] appears, read: dose: 200.0 mg/kg/injection, schedule: Q01DX005 (ip), vehicle: saline with Tween-80.
Where [19] appears, read: dose: 25.0 mg/kg/injection, schedule: Q01DX005 (ip), vehicle: saline with Tween-80.
Where [20] appears, read: dose: 50.0 mg/kg/injection, schedule: Q01DX005 (ip), vehicle: Klucel (hydroxypropylcellulose) (HPC).
The mark [21] stands for this setting: dose: 100.0 mg/kg/injection, schedule: Q01DX005 (ip), vehicle: Klucel (hydroxypropylcellulose) (HPC).
Setting [22] is: dose: 200.0 mg/kg/injection, schedule: Q01DX005 (ip), vehicle: Klucel (hydroxypropylcellulose) (HPC).

Values joined by “and” are separate entries in the source; they are usually repeats but may differ in a detail not shown here. Identical values can stand only once. Inconclusive results and toxic doses are left out.

For `COc1cc(O)cc2c1C(=O)C(C)O2` (stereo not given), the T/C is 101 % of control under setting [1], 101 % of control under setting [2] and 91 % of control under setting [3].

Regarding `CN1c2ccc(Cl)cc2C(=O)NC1c1ccc([N+](=O)[O-])s1` (stereo not given), the T/C by setting is: under setting [4], 106 % of control; under setting [5], 108 % of control; under setting [6], 113 % of control; (dose: 400.0 mg/kg/injection, schedule: Q01DX009 (ip), vehicle: saline with Tween-80) 115 % of control.

In the case of `O=C1CS(=O)(=O)CN1c1ccc(Cl)c(Cl)c1`, the T/C by setting is: (dose: 50.0 mg/kg/injection, schedule: Q01DX005 (ip), vehicle: acetone) 112 % of control; (dose: 100.0 mg/kg/injection, schedule: Q01DX005 (ip), vehicle: acetone) 109 % of control; (dose: 200.0 mg/kg/injection, schedule: Q01DX005 (ip), vehicle: acetone) 109 % of control.

Take `Cc1nc(O)c(-c2ccccc2)s1`: the T/C is 104 % of control under setting [4], 105 % of control under setting [5] and 92 % of control under setting [6].

In the case of `Cc1ncc(C(O)c2ccc(N(C)C)cc2)n1Cc1ccccc1` (stereo not given), the T/C reads like this: under setting [7], 98 % of control; under setting [8], 95 % of control; under setting [9], 95 % of control.

Take `Cc1nn(-c2ccccc2)c(=O)n2c1nc1ccccc12`: the T/C was 99 % of control under setting [1], 97 % of control under setting [2] and 91 % of control under setting [3].

On to `N#CC1(OC2OC(CO)C(O)C(O)C2O)C=CC(O)C1O` (stereo not given), for which the T/C by setting is: (dose: 25.0 mg/kg/injection, schedule: Q01DX005 (ip), vehicle: saline) 106 % of control; under setting [10], 120 % of control; under setting [11], 111 % of control and 97 % of control; under setting [12], 121 % of control and 97 % of control; (dose: 400.0 mg/kg/injection, schedule: Q01DX005 (ip), vehicle: saline) 102 % of control.

Turning to `Nc1nc2c(C(=O)N3CCCC3)nnn2c2ccccc12`, the T/C was 93 % of control under setting [4] and 94 % of control under setting [5].

Turning to `OCCN(CCO)Cc1nc2ccccc2[nH]1`, the T/C is, setting by setting: under setting [10], 104 % of control; under setting [11], 99 % of control; under setting [12], 101 % of control.

As for `N#CC1(C#N)C(CCl)C1(C#N)C#N`, the T/C under setting [13] was 98 % of control, the T/C under setting [14] was 94 % of control, the T/C under setting [4] is 98 % of control and the T/C under setting [15] was 102 % of control.

On to `Oc1ccc2ccc3cccc4ccc1c2c34`, for which the T/C runs as follows: under setting [16], 100 % of control; under setting [17], 100 % of control; under setting [18], 100 % of control.

Take `COc1ccc2nc(NC(=O)C(=O)C(C)C(=O)c3ccc(Cl)cc3)sc2c1` (stereo not given): the T/C is 108 % of control under setting [7], 98 % of control under setting [8] and 105 % of control under setting [9].

With `CCOC(=O)N1C=CC(=C2C(=C3C=CN(C(=O)OCC)C=C3)C(=C3C=CN(C(=O)OCC)C=C3)C2=C2C=CN(C(=O)OCC)C=C2)C=C1`, the T/C is, setting by setting: under setting [19], 100 % of control; under setting [16], 101 % of control and 102 % of control and 117 % of control; under setting [17], 100 % of control and 105 % of control and 109 % of control; under setting [18], 99 % of control.

With `N#CCCN(C(=O)Nc1ccc(Cl)c(Cl)c1)C1CCCCC1`, the T/C is, setting by setting: under setting [13], 98 % of control; under setting [14], 101 % of control and 104 % of control; under setting [4], 100 % of control and 103 % of control; under setting [5], 91 % of control and 97 % of control.

In the case of `C=C/C(=C/CC(=O)O[C@@H]1CCC(C)(C)C(C=O)=C1C)Sc1ccccc1`, the T/C reads like this: (dose: 50.0 mg/kg/injection, schedule: Q01DX001 (ip), vehicle: DMSO) 92 % of control; (dose: 100.0 mg/kg/injection, schedule: Q01DX001 (ip), vehicle: DMSO) 92 % of control; (dose: 200.0 mg/kg/injection, schedule: Q01DX001 (ip), vehicle: DMSO) 92 % of control.

For `O=c1c2nccnc2nc2n1CCCS2`, the T/C (dose: 100.0 mg/kg/injection, schedule: Q01DX009 (ip), vehicle: Klucel (hydroxypropylcellulose) (HPC)) was 99 % of control and the T/C (dose: 200.0 mg/kg/injection, schedule: Q01DX009 (ip), vehicle: Klucel (hydroxypropylcellulose) (HPC)) was 100 % of control.

As to `c1ccc(C(c2ccccc2)c2cc(-c3cc(C(c4ccccc4)c4ccccc4)[nH]n3)n[nH]2)cc1`, the T/C (dose: 60.0 mg/kg/injection, schedule: Q01DX005 (ip), vehicle: distilled water + Tween-80) was 97 % of control; the T/C (dose: 120.0 mg/kg/injection, schedule: Q01DX005 (ip), vehicle: distilled water + Tween-80) is 102 % of control; the T/C (dose: 240.0 mg/kg/injection, schedule: Q01DX005 (ip), vehicle: distilled water + Tween-80) is 102 % of control.

`Cc1nc2ncn(-c3ccccc3)c2c(=O)n1CC(C)C`: the T/C is, setting by setting: under setting [20], 100 % of control; under setting [21], 101 % of control; under setting [22], 102 % of control.

Turning to `N#C/C(=N\O)C(N)=O`, the T/C by setting is: (dose: 25.0 mg/kg/injection, schedule: Q01DX009 (ip), vehicle: saline) 92 % of control; under setting [15], 105 % of control; (dose: 100.0 mg/kg/injection, schedule: Q01DX009 (ip), vehicle: saline) 105 % of control; (dose: 200.0 mg/kg/injection, schedule: Q01DX009 (ip), vehicle: saline) 98 % of control.

For `c1ccc2c(NCCCCCCCCCCNc3c4ccccc4nc4ccccc34)c3ccccc3nc2c1`, the T/C runs as follows: (dose: 0.62 mg/kg/injection, schedule: Q## X009 (ip), vehicle: lactic acid) 104 % of control; (dose: 1.25 mg/kg/injection, schedule: Q## X009 (ip), vehicle: lactic acid) 118 % of control; (dose: 5.0 mg/kg/injection, schedule: Q## X009 (ip), vehicle: lactic acid) 120 % of control; (dose: 10.0 mg/kg/injection, schedule: Q## X009 (ip), vehicle: lactic acid) 90 % of control.

For the compound `CC1CCCCC1O` (stereo not given), the T/C is 110 % of control (dose: 50.0 mg/kg/injection, schedule: Q04DX003 (ip), vehicle: saline with Tween-80); 115 % of control (dose: 100.0 mg/kg/injection, schedule: Q04DX003 (ip), vehicle: saline with Tween-80); 115 % of control (dose: 200.0 mg/kg/injection, schedule: Q04DX003 (ip), vehicle: saline with Tween-80).

As for `COC(=Nc1ccccc1)SSC(C)C`, the T/C reads like this: under setting [14], 115 % of control; under setting [4], 115 % of control.

For the compound `COc1ccc(CNC(=O)C#CCOC2CCCCO2)cc1` (stereo not given), the T/C reads like this: (dose: 12.5 mg/kg/injection, schedule: Q01DX005 (ip), vehicle: saline with Tween-80) 91 % of control; under setting [19], 90 % of control; under setting [16], 86 % of control; under setting [18], 86 % of control.

On to `CCOC(=O)NC(NC(=O)OCC)c1ccncc1`, for which the T/C is, setting by setting: (dose: 100.0 mg/kg/injection, schedule: Q04DX003 (ip), vehicle: saline) 94 % of control; (dose: 200.0 mg/kg/injection, schedule: Q04DX003 (ip), vehicle: saline) 98 % of control; (dose: 400.0 mg/kg/injection, schedule: Q04DX003 (ip), vehicle: saline) 99 % of control.

With `CCC(=O)[O][Bi]([c]1ccccc1)[c]1ccccc1`, the T/C is 99 % of control and 116 % of control (dose: 25.0 mg/kg/injection, schedule: Q01DX005 (ip), vehicle: Klucel (hydroxypropylcellulose) (HPC)); 111 % of control and 114 % of control and 115 % of control under setting [20]; 106 % of control and 124 % of control under setting [21]; 168 % of control under setting [22].

For the compound `Cc1cccc(/C=C/C(=O)C(C)CN(C)C)c1` (stereo not given), the T/C by setting is: (dose: 15.0 mg/kg/injection, schedule: Q01DX005 (ip), vehicle: saline) 98 % of control; (dose: 30.0 mg/kg/injection, schedule: Q01DX005 (ip), vehicle: saline) 105 % of control; (dose: 60.0 mg/kg/injection, schedule: Q01DX005 (ip), vehicle: saline) 107 % of control and 116 % of control.
